Results reported in PubChem BioAssay (NCI).
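96-well plates; 48 h exposure; 5 concentrations. Endpoints by linear interpolation between flanking doses. Not reached: highest tested concentration assigned. GI50 = concentration required for 50% inhibition of growth. Definition used: TGI = concentration required for complete inhibition of growth.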

Legend:
Assay in all cases: NCI tumour cell line growth inhibition, 48 h
PC-3 prostate = test system: PC-3 prostate
HCT-15 colon = test system: HCT-15 colon
ACHN renal = test system: ACHN renal
COLO 205 colon = test system: COLO 205 colon
RPMI-8226 leukemia = test system: RPMI-8226 leukemia
DU-145 prostate = test system: DU-145 prostate
OVCAR-4 ovarian = test system: OVCAR-4 ovarian
SN12C renal = test system: SN12C renal
M14 melanoma = test system: M14 melanoma
A549 NSCLC = test system: A549 NSCLC
786-0 renal = test system: 786-0 renal
BT-549 breast = test system: BT-549 breast
NCI/ADR-RES ovarian = test system: NCI/ADR-RES ovarian
OVCAR-8 ovarian = test system: OVCAR-8 ovarian
MALME-3M melanoma = test system: MALME-3M melanoma
IGROV1 ovarian = test system: IGROV1 ovarian
HCC-2998 colon = test system: HCC-2998 colon
SNB-75 CNS = test system: SNB-75 CNS
EKVX NSCLC = test system: EKVX NSCLC
HOP-92 NSCLC = test system: HOP-92 NSCLC
MCF7 breast = test system: MCF7 breast
A498 renal = test system: A498 renal
LOX IMVI melanoma = test system: LOX IMVI melanoma
K-562 leukemia = test system: K-562 leukemia
SK-MEL-28 melanoma = test system: SK-MEL-28 melanoma
U251 CNS = test system: U251 CNS
CCRF-CEM leukemia = test system: CCRF-CEM leukemia
OVCAR-3 ovarian = test system: OVCAR-3 ovarian
SK-MEL-5 melanoma = test system: SK-MEL-5 melanoma
HS 578T breast = test system: HS 578T breast
OVCAR-5 ovarian = test system: OVCAR-5 ovarian
SK-MEL-2 melanoma = test system: SK-MEL-2 melanoma
T-47D breast = test system: T-47D breast
KM12 colon = test system: KM12 colon
MOLT-4 leukemia = test system: MOLT-4 leukemia
SF-539 CNS = test system: SF-539 CNS
NCI-H226 lung = test system: NCI-H226 lung
HOP-62 NSCLC = test system: HOP-62 NSCLC
MDA-MB-231 breast = test system: MDA-MB-231 breast
RXF 393 renal = test system: RXF 393 renal
NCI-H522 lung = test system: NCI-H522 lung
SK-OV-3 ovarian = test system: SK-OV-3 ovarian
HT29 colon = test system: HT29 colon
SNB-19 CNS = test system: SNB-19 CNS
SF-268 CNS = test system: SF-268 CNS
TK-10 renal = test system: TK-10 renal
UACC-257 melanoma = test system: UACC-257 melanoma
UACC-62 melanoma = test system: UACC-62 melanoma
SW-620 colon = test system: SW-620 colon
HCT-116 colon = test system: HCT-116 colon
NCI-H460 lung = test system: NCI-H460 lung
MDA-MB-435 = test system: MDA-MB-435
UO-31 renal = test system: UO-31 renal
NCI-H23 lung = test system: NCI-H23 lung

Cc1cc(Cl)nc(N(CCCNc2ccnc3cc(Cl)ccc23)Cc2cccs2)n1
GI50 (PC-3 prostate): 1.83 µM | TGI (PC-3 prostate): 13.7 µM | GI50 (HCT-15 colon): 1.43 µM | TGI (HCT-15 colon): 10.1 µM | GI50 (ACHN renal): 2 µM | TGI (ACHN renal): 11.5 µM | GI50 (COLO 205 colon): 1.39 µM | TGI (COLO 205 colon): 3.58 µM | GI50 (RPMI-8226 leukemia): 0.83 µM | TGI (RPMI-8226 leukemia): 3.84 µM | GI50 (DU-145 prostate): 2.23 µM | TGI (DU-145 prostate): 14.7 µM | GI50 (OVCAR-4 ovarian): 2.81 µM | TGI (OVCAR-4 ovarian): 25.6 µM | GI50 (SN12C renal): 1.4 µM | TGI (SN12C renal): 12.5 µM | GI50 (M14 melanoma): 1.23 µM | TGI (M14 melanoma): 2.91 µM | GI50 (A549 NSCLC): 2.96 µM | TGI (A549 NSCLC): 12.5 µM | GI50 (786-0 renal): 1.49 µM | TGI (786-0 renal): 4.35 µM | GI50 (BT-549 breast): 2.52 µM | TGI (BT-549 breast): 9.13 µM | GI50 (NCI/ADR-RES ovarian): 1.06 µM | TGI (NCI/ADR-RES ovarian): 6.53 µM | GI50 (OVCAR-8 ovarian): 2.06 µM | TGI (OVCAR-8 ovarian): 10.4 µM | GI50 (MALME-3M melanoma): 1.64 µM | TGI (MALME-3M melanoma): 3.46 µM | GI50 (IGROV1 ovarian): 0.856 µM | TGI (IGROV1 ovarian): 6.2 µM | GI50 (HCC-2998 colon): 2.09 µM | TGI (HCC-2998 colon): 6.12 µM | GI50 (SNB-75 CNS): 2.08 µM | TGI (SNB-75 CNS): 13.6 µM | GI50 (EKVX NSCLC): 1.99 µM | TGI (EKVX NSCLC): 12.7 µM | GI50 (HOP-92 NSCLC): 1.74 µM | TGI (HOP-92 NSCLC): 7.78 µM | GI50 (MCF7 breast): 1.74 µM | TGI (MCF7 breast): 6.85 µM | GI50 (A498 renal): 0.714 µM | TGI (A498 renal): 6.99 µM | GI50 (LOX IMVI melanoma): 1.22 µM | TGI (LOX IMVI melanoma): 2.98 µM | GI50 (K-562 leukemia): 0.496 µM | TGI (K-562 leukemia): 8.55 µM | GI50 (SK-MEL-28 melanoma): 1.79 µM | TGI (SK-MEL-28 melanoma): 5.78 µM | GI50 (U251 CNS): 2.18 µM | TGI (U251 CNS): 10.2 µM | GI50 (CCRF-CEM leukemia): 2.56 µM | TGI (CCRF-CEM leukemia): > 100 µM | GI50 (OVCAR-3 ovarian): 2.19 µM | TGI (OVCAR-3 ovarian): 13.4 µM | GI50 (SK-MEL-5 melanoma): 1.42 µM | TGI (SK-MEL-5 melanoma): 2.79 µM | GI50 (HS 578T breast): 2.21 µM | TGI (HS 578T breast): 12.9 µM | GI50 (OVCAR-5 ovarian): 1.39 µM | TGI (OVCAR-5 ovarian): 13.7 µM | GI50 (SK-MEL-2 melanoma): 2.29 µM | TGI (SK-MEL-2 melanoma): 6.54 µM | GI50 (T-47D breast): 1.82 µM | TGI (T-47D breast): 8.02 µM | GI50 (KM12 colon): 2.61 µM | TGI (KM12 colon): 11 µM | GI50 (MOLT-4 leukemia): 1.77 µM | TGI (MOLT-4 leukemia): 11.8 µM | GI50 (SF-539 CNS): 1.81 µM | TGI (SF-539 CNS): 5.85 µM | GI50 (NCI-H226 lung): 2.56 µM | TGI (NCI-H226 lung): 15.5 µM | GI50 (HOP-62 NSCLC): 1.83 µM | TGI (HOP-62 NSCLC): 10.7 µM | GI50 (MDA-MB-231 breast): 1.24 µM | TGI (MDA-MB-231 breast): 3.4 µM | GI50 (RXF 393 renal): 1.37 µM | TGI (RXF 393 renal): 5.22 µM | GI50 (NCI-H522 lung): 1.31 µM | TGI (NCI-H522 lung): 4.31 µM | GI50 (SK-OV-3 ovarian): 3.27 µM | TGI (SK-OV-3 ovarian): 12.6 µM | GI50 (HT29 colon): 0.57 µM | TGI (HT29 colon): 4.04 µM | GI50 (SNB-19 CNS): 2.35 µM | TGI (SNB-19 CNS): 13.5 µM | GI50 (SF-268 CNS): 3.36 µM | TGI (SF-268 CNS): 16.8 µM | GI50 (TK-10 renal): 2.07 µM | TGI (TK-10 renal): 12.1 µM | GI50 (UACC-257 melanoma): 2.19 µM | TGI (UACC-257 melanoma): 5.49 µM | GI50 (UACC-62 melanoma): 1.7 µM | TGI (UACC-62 melanoma): 4.51 µM | GI50 (SW-620 colon): 1.1 µM | TGI (SW-620 colon): 8.75 µM | GI50 (HCT-116 colon): 0.437 µM | TGI (HCT-116 colon): 2.64 µM | GI50 (NCI-H460 lung): 1.56 µM | TGI (NCI-H460 lung): 11 µM | GI50 (MDA-MB-435): 1.94 µM | TGI (MDA-MB-435): 6.09 µM | GI50 (UO-31 renal): 0.456 µM | TGI (UO-31 renal): 3.71 µM | GI50 (NCI-H23 lung): 1.28 µM | TGI (NCI-H23 lung): 5.8 µM
